# US6852503B1, “Compositions and methods for utilizing mixed substrate solutions of luminols and dioxetanes” (Pierce Biotechnology, Inc., priority 2001, dated 2005)
# How the values were obtained:
# alkaline phosphatase = alkaline phosphatase (Bos taurus, UniProt P19111); assay: Effect of peroxidase enhancers on observed alkaline phosphatase activity in dioxetane formulation containing PBTBQ; format: biochemical; conditions: for Response, Percent: 33.3 pg alkaline phosphatase, 30 minutes, net signal relative to control solution (CDP-Star plus Nitroblock II) set to 100%; for enhancement of the observed phosphatase activity: relative to control solution
# Protocol: (§1) A variety of known enhancers of peroxidase activity were tested for their effect on the observed alkaline phosphatase activity in a dioxetane formulation containing the PBTBQ alkaline phosphatase enhancement agent. […] 10 μl of TBS served as a background control. 40 mM stock solutions as ws-PT, ws-PT-N-C4-S-C2Cl, and ws-PT Plus (CP-Br) were prepared in water. A 50 mM solution of DMAP was prepared in water. A 20 mM ws-PT Plus (MPA Cl) was prepared in water. 40 mM solutions of MPT and CPPT were prepared in methanol. (See Table 3 for acronym identification of these peroxidase enhancers, some of which are substantially water-soluble(ws).) The control solution was prepared by mixing 2.85 ml of CDP-Star RTU (Tropix Product No. MS100R) with 0.15 ml of NitroBlock II (Tropix Product No. LNX200). For the test solutions, 112 μl of the peroxidase enhancer stock solutions were added to 3 ml of the control solution in the case of the ws-PT, MPT, ws-PT-NC4S, ws-PT-Plus (CP-Br), or CPPT; for the ws-PT-Plus (MPS-C) 224 μl of the stock was added to 3 ml of the control solution; for the DMAP, 150 μl of the stock was added to 3 ml of the control solution; for the test solution containing DMAP and ws-PT, 150 μl of the DMAP stock and 112 μl of the ws-PT stock was added to 3 ml of the control solution.
# To the wells of the microplate containing the alkaline phosphatase aliquots, the control and test formulations were added at 100 μl per well, mixed for approximately one minute, and allowed to react for 30 minutes at which time the chemiluminescent signal was measured on a Berthold EGG Luminometer using a 0.1 second integration time. Table 3 illustrates the relative signal intensities obtained using the response from the control solution set to 100%. The net signal of each solution (background subtracted) was used for these calculations. […] Consequently, the relative response factors for alkaline phosphatase and peroxidase activity to each other in the present invention can be modulated by the choice of the peroxidase enhancer used in the substrate solution formulation of this invention.
# [1] = Visual appearance (flocculation) of test solutions; format: physicochemical; conditions: enhancer stock added to CDP-Star RTU/NitroBlock II control solution
# Protocol: as §1
# Sequence of alkaline phosphatase (P19111 20-506 limits assumed): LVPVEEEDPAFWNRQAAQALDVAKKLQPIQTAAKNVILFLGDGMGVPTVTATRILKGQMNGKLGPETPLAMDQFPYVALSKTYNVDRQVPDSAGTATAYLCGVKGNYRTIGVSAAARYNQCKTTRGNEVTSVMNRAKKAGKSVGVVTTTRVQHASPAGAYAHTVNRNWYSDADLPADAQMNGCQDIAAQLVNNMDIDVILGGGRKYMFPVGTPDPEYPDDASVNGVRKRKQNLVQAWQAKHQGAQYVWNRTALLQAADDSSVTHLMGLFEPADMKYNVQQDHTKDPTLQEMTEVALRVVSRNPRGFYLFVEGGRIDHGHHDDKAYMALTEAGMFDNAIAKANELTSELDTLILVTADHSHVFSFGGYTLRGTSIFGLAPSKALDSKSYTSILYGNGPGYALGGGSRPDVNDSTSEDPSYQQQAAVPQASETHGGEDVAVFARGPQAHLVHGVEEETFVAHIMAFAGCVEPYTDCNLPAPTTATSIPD
"Response, Percent (alkaline phosphatase)",enhancement of the observed phosphatase activity (alkaline phosphatase),Structure (SMILES),appearance of test solution [1]
198%,significant enhancement,"CN1c2ccccc2Sc2ccccc21 [MPT, 10-methyl-10H-phenothiazine]",visible flocculation
70%,,"C[N+](C)(C)CCCN1c2ccccc2Sc2ccccc21.[Cl-] [ws-PT Plus (MPA^+Cl^−), Trimethyl-(3-phenothiazin-10-yl-propyl)ammonium chloride]",
104%,,"O=C(O)CCCN1c2ccccc2Sc2ccccc21 [CPPT, 4-(phenothiazin-10-yl)butanoic acid]",

# Second part, the molecule before the results:
Structure (SMILES),"Response, Percent (alkaline phosphatase)",enhancement of the observed phosphatase activity (alkaline phosphatase),appearance of test solution [1]
"C[N+](C)(C)CCCN1c2ccccc2Sc2ccc(Cl)cc21.[Br-] [ws-PT Plus (CP—Br^−), [3-(2-chlorophenothiazin-10-yl)-propyl]trimethyl-ammonium bromide]",85%,,
"O=S(=O)([O-])CCCN1c2ccccc2Sc2ccccc21.[Na+] [ws-PT, Sodium (3-phenothiazine-10-yl)-propane-1-sulfonate]",207%,significant enhancement,visible flocculation
"CNC.c1ccncc1 [DMAP, Dimethylamine pyridine]",99%,,
"O=S(=O)([O-])CCCCN1c2ccccc2Sc2ccc(Cl)cc21.[Na+] [ws-PT—N—C4S—C2—Cl, Sodium 4-(2-chlorophenothiazin-10-yl)butane-1-sulfonate]",218%,significant enhancement,
